Experiment: gradient 5% acetonitrile 3 min, to 50% in 2 min, to 85% in 15 min, held 3 min, 100 µL/min
Conditions: column: Zorbax Extend-C18 2.1 x 50 mm; eluents: water / acetonitrile, 0.1% formic acid
Procedure, shortened: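 Using water and acetonitrile that each contained 0.1% formic acid, mixtures of ~100 pure standards were separated at 100 μL/min on a Zorbax Extend-C18 column (2.1 × 50 mm, 1.8 μm). The HPLC fed a quadrupole time-of-flight mass spectrometer working in positive and negative ionization mode, with dead and dwell volumes of 40 μL and 900 μL. Data were acquired over 3 months. Retention time was read from computationally picked adduct peaks after manual inspection of each.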

RP-LC retention time	Structure (SMILES)
822 s	CCOC(=O)c1oc2ccc(S(=O)(=O)N3CCCC(c4nn[nH]n4)C3)cc2c1C (centres undefined)
936 s	CC(C)n1cc(S(=O)(=O)Nc2ccc(F)c(F)c2)c2cccnc21
825 s	Cc1cccc(OCC(=O)N2CCC3(C2)C(=O)N(C)c2ccccc23)c1 (centres undefined)
646 s	COCCCNS(=O)(=O)c1cc(-c2[nH]ncc2C(=O)N2CCCCC2)oc1C
742 s	Cc1ccc(Nc2c(-c3ccc(N(C)C)cc3)nc3ncccn23)cc1
611 s	N[C@@H](Cc1ccc2oc3cc(=O)c4ccccc4c-3nc2c1)C(=O)O
935 s	COc1ccc(-c2ncc3c(n2)CCN(S(=O)(=O)c2cccc4cccnc24)C3)cc1
742 s	Clc1cc(Cl)cc(-c2ccc(CNCc3ccccn3)o2)c1
663 s	CC(=O)Nc1ccc(-n2cnc(C(=O)NCc3ccccc3F)c2)nc1
894 s	O=c1c2cc(-c3ccc(Cl)cc3)nn2ccn1Cc1nc(-c2ccccn2)no1
735 s	Cc1cc(C)cc(C(=O)N2CCN(c3nc(C)cc(N4CCCC4)n3)CC2)c1
921 s	Cc1cccc(-c2nc3c4ccccc4nc(N4CCN(c5ccccn5)CC4)n3n2)c1
915 s	COc1ccc(C2CC(=O)N(c3ccc(F)c(Cl)c3)C(=O)C2)cc1OC
912 s	COCCN(CC(=O)N1CCc2sccc2C1COc1ccccc1F)C(=O)C(C)C (centres undefined)
885 s	O=C(Nc1ccc(OCc2nnc(-c3ccccc3)o2)cc1)C1CCCC1
866 s	CCc1ccc(-n2nnc(C(=O)N3CCCCC3C)c2-c2cccnc2)cc1 (centres undefined)
720 s	CCOc1ccc(NC(=O)N2CCC3(C2)C(=O)Nc2ccccc23)cc1 (centres undefined)
651 s	O=C(NCC1CC1)c1cn(-c2ccc(NC(=O)C3CC3)cn2)cn1
700 s	Cn1cc(CCNC(=O)c2ccccc2C(F)(F)F)c2cccnc21
639 s	Cc1ccccc1Cn1cc(CCC(=O)NCCN2CCOCC2)c2ccccc21
613 s	CN1C(=O)COc2cc(-c3noc(C(=O)NCc4cccnc4)n3)ccc21
887 s	O=C(NCC1(c2cccs2)CC1)c1ccc(F)c(F)c1
553 s	O=C(NC1CC1)c1ccc(N2CCC(NCc3ccc(F)cc3)C2)nc1 (centres undefined)

RP-LC retention time	Structure (SMILES)
904 s	CCc1noc(-c2ccnc(-n3ncc(C(=O)N4CCSCC4)c3C)c2)n1
654 s	Cc1cnn(CCC(=O)NC2CCN(c3ccc(=O)n(CC4CC4)n3)C2)c1 (centres undefined)
639 s	Cn1c(=O)n([C@H]2CCN(C(=O)C3CC3)C2)c2ncccc21
604 s	CCN1CCN(C(=O)c2nc(N3CCSCC3)c3cnn(C)c3n2)CC1
869 s	Cc1ccc(NC(=O)N2CCC(C(C)C(=O)Nc3ccccc3F)CC2)cc1 (centres undefined)
790 s	O=S(=O)(NCC(c1cccnc1)c1c[nH]c2ccccc12)c1ccc2c(c1)CCCC2 (centres undefined)
918 s	Cc1ccc(-c2nnc(-c3cccc(S(=O)(=O)NCC4CCCO4)c3)o2)cc1 (centres undefined)
862 s	CCn1cc(S(=O)(=O)NCc2cccc(Cl)c2)c2cccnc21
770 s	CN(C)CCCNc1cc(N2CCOCC2)c2noc3c2c1C(=O)c1ccccc1-3
1010 s	COc1ccc(-c2cc(-c3nc4c5sc6nc(C)cc(C)c6c5ncn4n3)[nH]n2)cc1
1170 s	CC1=Nc2ccccc2N=C(NC(=O)Nc2cccc(Cl)c2)C1c1ccc(Cl)cc1 (centres undefined)
803 s	Cc1noc(-c2cc(=O)n(CC(=O)Nc3ccc4c(c3)OCCO4)c3ccccc23)n1
638 s	CC(C)S(=O)(=O)N1CCC2(CC1)NCCCN=C2Nc1cccc(F)c1
641 s	CC(=O)Nc1nsc(N2CCC(C(=O)NCc3ccc4c(c3)OCO4)CC2)n1
885 s	O=C(NC1(c2nc(-c3ccncc3)no2)CCCCC1)c1ccccn1
807 s	Cc1nc(CCNS(=O)(=O)c2cccc(C(F)(F)F)c2)no1
824 s	Cc1ccc(CNC(=O)CN2C(=O)CCCc3cc(S(=O)(=O)N4CCCC4)ccc32)cc1
1270 s	CCOC(=O)c1c(C)oc2nc(C)nc(NCCc3ccc(OCC)cc3)c12
924 s	COc1ccccc1NS(=O)(=O)c1ccc(-c2c(C)noc2C)cc1
990 s	Cc1cc(C)nc(N2CCN(c3nc(C)cc(C)c3C#N)CC2)n1
744 s	CCN1C(=O)C(C)(C(=O)Nc2ccc(C)cc2C)Oc2cccnc21 (centres undefined)
764 s	CC(C)NC(=O)N1CCC(Oc2ccccc2)C1 (centres undefined)
695 s	COc1ccccc1-n1cc(-c2ccccc2)c2c(NCCN(C)C)ncnc21

RP-LC retention time	Structure (SMILES)
1050 s	Cc1ccc(NC(=O)C2CCN(S(=O)(=O)c3cc(-c4noc(C5CC5)n4)cs3)CC2)cc1
1350 s	COC(=O)c1cc2c(=O)n(-c3nc4ccc(Cl)cc4s3)ccc2nc1C
629 s	CCOC(=O)N1CCN(c2cc(C(=O)O)c3cc(NC(=O)c4ccccc4OC)ccc3n2)CC1
1080 s	O=c1c2ccccc2n(Cc2nc(-c3ccc(Cl)cc3)no2)c(=O)n1CC1CCCO1 (centres undefined)
616 s	CCOC(=O)c1c(C)[nH]c(C)c1S(=O)(=O)N1CCC(C(=O)Nc2ccc(C)c(N(C)C)c2)CC1
578 s	CN1CCC(NC(=O)c2n[nH]c3c2CN(C(=O)c2ccc(F)cc2F)CC3)CC1
578 s	CC(C(=O)NCCSc1nncn1C)n1nnc2ccccc2c1=O (centres undefined)
1060 s	CCc1ccc(-c2ccc(=O)n(Cc3nc(-c4cccs4)no3)n2)cc1
988 s	CCOC(=O)c1noc2ncnc(N3CCCc4ccccc43)c12
720 s	COc1ccccc1-c1noc(C2CCCN2C(=O)c2cnccn2)n1 (centres undefined)
626 s	COc1ccc(Cc2nc(-c3ccc4c(c3)ncn4CCN3CCCCC3)no2)cc1
996 s	O=C(Cn1cccc1-c1nnc(-c2ccccc2)o1)N1CCN(c2ccccc2F)CC1
613 s	COc1ccc(Cl)cc1NC(=O)COc1cc(C)nc(N2CCCC2)n1
707 s	CCOC(=O)CSc1nnc2n1CCN2c1ccc(OC)cc1
620 s	CCCCN1CCN(C(=O)c2nnc(-c3ccc(S(=O)(=O)N(C)C)cc3)o2)CC1
982 s	O=C(CN1c2ccc(F)cc2-c2ccccc2S1(=O)=O)Nc1cccc(F)c1
629 s	COc1ccc(Nc2c(C(=O)N3CCC(C)CC3)cnc3nc(C)ccc23)cc1OC
562 s	Cn1cc(CCN2CCC(C(=O)NCC3CCCO3)CC2)c2cccnc21 (centres undefined)
861 s	CCSCCOC(=O)C1=C(C)NC2=C(C(=O)CCC2)C1c1cccc(OC)c1OC (centres undefined)
712 s	CSc1cccc(NC(=O)Nc2cccc(-c3ccc(N4CCCC4)nn3)c2)c1
814 s	O=C(NCC(O)c1cccc2ccccc12)c1ccccc1C(F)(F)F (centres undefined)
752 s	CN1c2cc(F)ccc2C(=O)NC12CCN(C(=O)Cc1cccc(F)c1)CC2
852 s	Oc1c(C(c2ccc(F)cc2)N2CCN(c3cccc(Cl)c3)CC2)sc2ncnn12 (centres undefined)

RP-LC retention time	Structure (SMILES)
1030 s	Cn1ncc2c(N3CCCCC3)nc(C(=O)N3CCN(c4ccccc4Cl)CC3)nc21
733 s	CCCCNC(=O)C1CCCN(c2nnc(C)c3c(C)n(-c4ccc(C)cc4)nc23)C1 (centres undefined)
867 s	COc1ccc(OC)c(NC(=O)N2CCCn3nc(-c4cccs4)cc3C2)c1
582 s	CCCCN1CCN(C(=O)c2cc(-c3ccncc3)cn2Cc2ccc(C)cc2)CC1
858 s	O=C(C1CC1)N1CCc2sc(S(=O)(=O)Nc3ccccc3Br)cc2C1
741 s	CCN1C(=O)c2c(C(=O)NCc3ccccc3F)ncn2CC1(C)C(=O)NC1CCCC1 (centres undefined)
738 s	CCCNC(=O)C1CCN(S(=O)(=O)c2cc(C(=O)N3CCC(C)CC3)n(C)c2)CC1
798 s	CCNC(=O)N1CCc2c([nH]c3ccc(C)cc23)C12C(=O)N(C)c1ccccc12 (centres undefined)
839 s	CCc1noc(NC(C)=O)c1-c1ccc(C)c(S(=O)(=O)NC2CCCCC2)c1
828 s	CCc1nc(-c2c(C)cc(C)nc2NC(=O)c2ccccc2Br)no1
548 s	O=C(Nc1nc2c(s1)CN(Cc1ccccc1)CC2)c1cccc(N2C(=O)CCC2=O)c1
672 s	Cc1ccc(CNC(=O)c2cc(-c3ccncc3)cn2C)cc1C
958 s	CCCS(=O)(=O)c1nc2ccc(NS(=O)(=O)c3cc(C)ccc3C)cc2s1
804 s	CCN1C(=O)c2cccnc2Sc2cc(NC(=O)c3ccc(Cl)cc3OC)ccc21
612 s	COCC(=O)N1CCCCC1c1nncn1Cc1ccccc1 (centres undefined)
589 s	O=C(NCc1cccs1)NC1CC(=O)N(C2CC2)C1 (centres undefined)
1100 s	CCC(C)c1ccc(NC(=O)c2nn(C)cc2Cl)cc1 (centres undefined)
828 s	Cc1nc2ccn(Cc3ccco3)c(=O)c2cc1C(=O)NCCC1=CCCCC1
681 s	COc1ccc(OCc2noc(CNC(=O)Cc3c[nH]c4ccccc34)n2)cc1
768 s	O=C(COc1ccccc1)N1CC(F)(F)C[C@H]1c1nnc(C2CC2)o1
